“And” between values parts separate entries of the source, which are not always exact repeats. Identical values can stand only once. Inconclusive results are not listed. The source made the active and inactive calls. How the calls were made is not given here.
Each compound was assayed on C. albicans CaCi-8 + fluconazole, Alamar Blue growth, 48 h (assay: resistant C. albicans growth inhibition with fluconazole, dose response, CaCi-8 strain, Alamar Blue fluorescence (AID 2423)).

Compound | EC50
CCn1nc(-c2ccccc2)nc2c(=O)n(C)c(=O)nc1-2 | 883 nM
COc1ccc(-c2cc(-c3c(O)c(OC)c4occc4c3OC)[nH]n2)cc1OC | > 16000 nM (inactive)
O=C(c1ccc2c(c1)OCO2)N1CCC2(CC1)Oc1ccc(Cl)cc1C(=O)C21CC(c2cccnc2)=NO1 (stereo not given) | 438 nM
Cn1c(NN=O)nc2ccccc21 | > 15000 nM (inactive)
O=c1c2ccccc2nc(/C=C/c2ccc([N+](=O)[O-])o2)n1CCCO | 153 nM
COCC(=O)Nc1nc2n(n1)C(c1ccccc1Cl)CC(c1ccc(OC)cc1)N2 (stereo not given) | > 16000 nM (inactive)
COCCNC(=O)NC12CC3CC(CC(C3)C1)C2 | > 16000 nM (inactive)
O=c1c2ccccc2nc(/C=C/c2ccc([N+](=O)[O-])o2)n1-c1ccc(O)cc1 | < 120 nM
Cc1cc(Oc2ccccc2)nc(-c2ccccc2O)n1 | > 15000 nM (inactive)
Cc1cc(C)n(-c2nc(NCCN(C)C)c3c4c(sc3n2)CCCC4)n1 | 5130 nM
COc1cccc(CN(C(=O)c2cc3ccccc3oc2=O)C2CC2)c1 | > 15000 nM (inactive)
O=C(Oc1c(CN2CCOCC2)cc(Cl)c2cccnc12)c1ccccc1Cl | 2420 nM
Cc1cccc(C2c3[nH]c4ccccc4c3CCN2C(=O)c2cc(-c3cccn3C)n[nH]2)n1 (stereo not given) | 1050 nM
O=C(Nc1nnc(-c2ccccc2)o1)c1cc(-c2cccs2)nc2ccccc12 | 901 nM
O=C(NCc1ccc(Cl)cc1)c1n[nH]c([N+](=O)[O-])c1Cl | > 16000 nM (inactive)
O=C(NC1CCCCC1)C(c1ccc2ncccc2c1)N(Cc1ccc(F)cc1)C(=O)c1ccc2c(c1)OCCO2 (stereo not given) | > 15000 nM (inactive)
CCCCN(CCCC)S(=O)(=O)c1ccc(C(=O)Nc2nnc(COC)o2)cc1 | > 15000 nM (inactive)
O=C(O)c1ccc(Nc2cnc3ccccc3n2)cc1 | > 16000 nM (inactive)
Cc1ccc2cc(C3C(C#N)=C(N)Oc4c3ccc3cccnc43)c(=O)[nH]c2c1 (stereo not given) | 1900 nM
Cc1onc(-c2ccccc2)c1C(=O)N/N=C(\N)COc1ccc(Cl)cc1 | 14200 nM
COc1ccc(Cn2c(O)c(/C=N/NC(=O)c3cccnc3)c3ccccc3c2=O)cc1 | 765 nM
CCN1/C(=C/c2sc(-c3ccccc3C)c[n+]2C)Sc2ccccc21 | 289 nM
CCNC(=S)NNC(=O)c1cc(-c2cc(C)ccc2C)nc2ccccc12 | 134 nM
Cc1cccc(C(=O)O/N=C/c2c(N3CCOCC3)n(C)c3ccccc23)c1 | 799 nM
O=C1c2ccccc2NC(c2cnc3ccccc3n2)N1O (stereo not given) | > 16000 nM (inactive)
CC(=O)Nc1ccc(N2CCCCC2)c(C(=O)Nc2cccc(C)c2)c1 | > 16000 nM (inactive)
Cc1ccc2nc(-c3ccccc3Cl)cc(C(=O)Nc3cc(C)on3)c2c1 | 505 nM
COc1cccc(C(=O)NNC(=O)c2ccc3ccccc3c2O)c1 | 9440 nM

Compound | EC50
CCN(CC)Cc1ccc(NC(=O)c2sc3cc(Cl)ccc3c2Cl)cc1 | 1080 nM
N#C/C(=N/Nc1ccc(OC(F)(F)F)cc1)C(N)=S | > 15000 nM (inactive)
CCOc1ccc(Nc2nc(NCC3CCCO3)c3ccccc3n2)cc1 (stereo not given) | 1980 nM
CC(=O)c1sc(NC(=O)CCS(=O)(=O)c2ccccc2)nc1C | 368 nM
O=C(c1ccc(C(=O)N2CCN(c3ccccc3F)CC2)nc1)N1CCN(c2ccccc2F)CC1 | > 16000 nM (inactive)
COc1ccc(OC)c(C2C(C(=O)c3cc4ccccc4o3)=C(O)C(=O)N2c2cc(C)on2)c1 (stereo not given) | < 120 nM
COc1ccc(CCNC(=O)c2c(O)c3ccccc3n(C)c2=O)cc1 | > 15000 nM (inactive)
CCOc1ccccc1NC(=O)c1cc(S(=O)(=O)N2CCC3(CC2)OCCO3)ccc1F | > 16000 nM (inactive)
CCCC(=O)NC(c1ccc(OC)cc1)c1ccc2cccnc2c1O (stereo not given) | 893 nM
c1cnc2c(c1)ccc1cccnc12 | 10500 nM and 9350 nM
COc1ccc(NC(=O)c2cc([N+](=O)[O-])ccc2O)cc1 | 3920 nM
CCN(CC)c1ccc(/C=N/Nc2nc(C)cc(=O)[nH]2)c(O)c1 | 500 nM
COc1ccc(-c2cc(N)n(S(=O)(=O)c3c(F)c(F)c(F)c(F)c3F)n2)cc1OC | > 16000 nM (inactive)
CCC(=O)NC(c1cccs1)c1cc(Cl)c2cccnc2c1O (stereo not given) | 372 nM
COc1cccc(/C=N/Nc2ncnc3scc(-c4ccccc4)c23)c1O | 1190 nM
Cc1ccc(C)c(SCC(=O)Nc2nnc(-c3ccccc3)o2)c1 | 2240 nM
CC(Nc1ncnc2ccccc12)c1ccccc1 (stereo not given) | 606 nM
CCOC(=O)CC(/C(C)=N\O)c1ccccc1 (stereo not given) | > 16000 nM (inactive)
Brc1ccc(N/N=C(/N=Nc2nn[nH]n2)c2ccccc2)cc1 | 5600 nM
COC(=O)c1c(C)n(-c2ccccc2)c2ccc(O)cc12 | 3160 nM
CCOc1ccc2c(c1)C(C)=CC(C)(C)N2S(=O)(=O)c1ccc(C)cc1 | > 16000 nM (inactive)
CC(=O)NC(c1ccccc1)c1cc(Cl)c2cccnc2c1O (stereo not given) | 764 nM
CCCCC(=O)NC(c1ccc(Cl)cc1)c1ccc2cccnc2c1O (stereo not given) | 502 nM
Cc1ccc(Nc2nc(CSc3nnc(-c4ccncc4)n3-c3ccccc3C)cs2)cc1 | > 16000 nM (inactive)
Cc1n[nH]c(C)c1CCNCc1ccc(OCC(O)CN2CCCCC2)cc1 (stereo not given) | > 15000 nM (inactive)
O=C(Nc1nnc(-c2ccco2)o1)c1cccc(Cl)c1 | 859 nM
O=C(NCC(=O)N(CC1CCCO1)C(C(=O)NC1CCCCC1)c1ccccc1)c1ccco1 (stereo not given) | > 15000 nM (inactive)
